According to US20150192565A1, “METHOD FOR EVALUATING THERAPEUTIC EFFECT OF T[…] APPLICATION THEREOF” (NATIONAL TAIWAN UNIVERSITY, priority 2014, published 2015):

Assays:
HCC [1] = test: Thalidomide as adjuvant therapy after curative resection for HCC, HCC recurrence by LHX4 expression group (Kaplan-Meier); format: in vivo, human; details: for HCC recurrence rate (%) / Number of HCC recurrence patients: three-year
Description: Samples of liver tissue were obtained from 48 patients, who suffered HCC at stage II or III (defined by American Joint Committee on Cancer, AJCC) and underwent curative resection for the HCC. All of the patients were enrolled within 4 weeks after surgery. 27 of the patients received Thalidomide 200 mg/day and the others received a placebo 200 mg/day for 12 months or until HCC recurrence.
The sample of liver tissue from each patient includes tumorous tissue and non-tumorous tissue neighboring the tumorous tissue. The respective Lhx4 proteins in the tumorous and non-tumorous tissues of each patient were detected using western blot and then quantified by ImageJ software (published by the National Institutes of Health of United States of America). The quantified results of the Lhx4 proteins in the tumorous and non-tumorous tissues were respectively normalized based on the quantified results of β-actin in the tumorous and non-tumorous tissues of the corresponding patient to obtain the (protein) expression levels of the LHX4 gene in the tumorous and non-tumorous tissues of the patient.
For each and every patient, the expression level of the LHX4 gene in the tumorous tissue (called “T” hereinafter) was divided by the expression level of the LHX4 gene in the non-tumorous tissue (called “NT” hereinafter) to obtain a T/NT ratio, which represents the decreasing magnitude of the expression level of the LHX4 gene in the tumorous tissue when compared with the non-tumorous tissue.
In an embodiment, the correlation between the decreasing magnitude of the expression level of the LHX4 gene in the tumorous tissue of a patient and the therapeutic effect of Thalidomide on the liver cancer of the patient is indicated by the HCC recurrence of the patient. Specifically, the end date of observation of a patient's HCC recurrence is set as the date three years after the surgery for the liver cancer.
In an embodiment, the 48 patients were divided into two groups according the T/NT ratio to evaluate the therapeutic effect of Thalidomide on the patients. […]
Each of FIGS. 2A, 2B and 2C show the respective 3-year HCC recurrence-free survival days (from the date that the patient underwent the surgery for the liver cancer to the date of observing the HCC recurrence of the patient) of the patients, where the event in the curves is the first HCC recurrence of a patient after the surgery.
In an embodiment, for each of the 48 patients, the LHX4 expression level in the tumorous tissue was obtained through normalizing the quantified result of the western blot of the Lhx4 protein of the tumorous tissue based on a specific amount of β-actin in the tumorous tissue. After the normalization, the LHX4 expression levels in the tumorous tissue of all the patients, normalized by the same amount of β-actin, were obtained. […] Each of FIGS. 3A, 3B and 3C show the respective 3-year HCC recurrence-free survival days (from the date that the patient underwent the surgery for the liver cancer to the date of observing the HCC recurrence of the patient) of the patients, where the event of the curves is the first HCC recurrence in a patient after the surgery.

HCC [2] = details: adjuvant therapy after surgical resection; placebo 33%; cited from earlier work
[3] = T/NT ratio < 0.2, 13 total patients
[4] = T/NT ratio ≧ 0.2, 14 total patients

O=C1CCC(N2C(=O)c3ccccc3C2=O)C(=O)N1 (racemic) [Thalidomide, (RS)-2-(2,6-dioxopiperidin-3-yl)-1H-isoindole-1,3(2H)-dione]
mean 3-year HCC recurrence-free survival days, lower group compared with higher group (HCC [1]; groups divided by arithmetic average of LHX4 expression levels in tumorous tissue, patients receiving Thalidomide): obviously delayed | mean 3-year HCC recurrence-free survival days (HCC [1]; higher group, LHX4 expression level in tumorous tissue not lower than 0.17 (median), 14 patients, FIG. 3B/3C, P=0.567 vs placebo (535 days)): 466 days | mean 3-year HCC recurrence-free survival days (HCC [1]; higher group, T/NT ratio not lower than 0.2, Thalidomide 200 mg/day, 14 patients, FIG. 1B/1C, P=0.687 vs placebo (535 days)): 521 days | mean 3-year HCC recurrence-free survival days (HCC [1]; higher group, T/NT ratio not lower than 0.5, 5 patients, FIG. 2B/2C, P=0.272 vs placebo (493 days)): 344 days | mean 3-year HCC recurrence-free survival days (HCC [1]; lower group, LHX4 expression level in tumorous tissue lower than 0.17 (median), 13 patients, FIG. 3A/3C, P=0.033 vs placebo (526 days)): 833 days | mean 3-year HCC recurrence-free survival days (HCC [1]; lower group, T/NT ratio lower than 0.2, Thalidomide 200 mg/day, 13 patients, FIG. 1A/1C, P=0.06 vs placebo (526 days)): 744 days | mean 3-year HCC recurrence-free survival days (HCC [1]; lower group, T/NT ratio lower than 0.5, 22 patients, FIG. 2A/2C, P=0.2 vs placebo (545 days)): 711 days | HCC recurrence rate (%) (HCC [1]; [3]): 38.5% | Number of HCC recurrence patients (HCC [1]; [3]): 5 | HCC recurrence rate (%) (HCC [1]; [4]): 85.7% | Number of HCC recurrence patients (HCC [1]; [4]): 12 | two-year HCC recurrence-free survival rate (HCC [2]): 65%
